In PMC8695447, “Novel Small Molecules Capable of Blocking mtRAS-Signaling Pathway” (Frontiers in Oncology, 2021):
Each block holds one molecule with its values, some of them ahead of it.

Key:
mtKRAS NSCLC cell = test system: mtKRAS NSCLC cell; parameters: method as in earlier work; details: ACK1 inhibitor; ref 37 (Tan et al.); cited from earlier work
HT-29 (KRAS-Q61L) = test: Anti-proliferation assay on HT-29; format: cell-based; details: 72 h treatment, average with SD (n = 3, duplicate)
Protocol: (§1) Ba/F3-parental, OCI-AML3, U397 cells were purchased from DSMZ. MDA-MB-231, HCT-116, AsPC-1, H358, HT-29, SW480, and DU-145 cells were obtained from KCLB. MDA-MB-468 cells were obtained from ATCC. All cells were maintained in RPMI with 10% FBS and antibiotics. Cells were grown in a humidified 5% CO2 incubator at 37°C. Ba/F3-parental cells were grown in the presence of 10 ng/ml IL-3. NRAS-G12D or NRAS-G12V transformed Ba/F3 cell lines (Ba/F3-NRAS-G12D, and Ba/F3-NRAS-G12V, respectively) were cultured without IL-3, which were established by the procedure described as previously ([30]).
(§2) Approximately 3.0 × 10^3 cells/well were seeded in a 96-well cell culture plate. After stabilization, 1/3 serially diluted compound in DMSO was treated to the cell. […] All GI50 values were obtained in duplicate with three independent assays and averages with standard deviation are presented.

U937 (KRAS, NRAS-wt) = test: Anti-proliferation assay on U937; format: cell-based; details: 72 h treatment, average with SD (n = 3, duplicate)
Protocol: as §1, §2

Ba/F3-NRAS-G12D cells = test: Anti-proliferation assay (CellTiter Glo) on Ba/F3-NRAS-G12D; format: cell-based; details: 72 h treatment, average with SD (n = 3, duplicate)
Protocol: as §1, §2

H358 (KRAS-G12C) = test: Anti-proliferation assay on H358; format: cell-based; details: 72 h treatment, average with SD (n = 3, duplicate)
Protocol: as §1, §2

MDA-MB-231 (KRAS-G13D) = test: Anti-proliferation assay on MDA-MB-231; format: cell-based; details: 72 h treatment, average with SD (n = 3, duplicate)
Protocol: as §1, §2

HCT-116 (KRAS-G13D) = test: Anti-proliferation assay on HCT-116; format: cell-based; details: 72 h treatment, average with SD (n = 3, duplicate)
Protocol: as §1, §2

[1] = test system: MDA-MB-468 (KRAS, NRAS-wt); test: Anti-proliferation assay on MDA-MB-468; format: cell-based; details: 72 h treatment, average with SD (n = 3, duplicate)
Protocol: as §1, §2

AsPC-1 (KRAS-G12D) = test: Anti-proliferation assay on AsPC-1; format: cell-based; details: 72 h treatment, average with SD (n = 3, duplicate)
Protocol: as §1, §2

Ba/F3-parental cells = test: Anti-proliferation assay (CellTiter Glo) on Ba/F3-parental; format: cell-based; details: 72 h treatment, with 10 ng/ml IL-3, average with SD (n = 3, duplicate)
Protocol: as §1, §2

Ba/F3-NRAS-G12V cells = test: Anti-proliferation assay (CellTiter Glo) on Ba/F3-NRAS-G12V; format: cell-based; details: 72 h treatment, average with SD (n = 3, duplicate)
Protocol: as §1, §2

DU-145 (KRAS-G12V) = test: Anti-proliferation assay on DU-145; format: cell-based; details: 72 h treatment, average with SD (n = 3, duplicate)
Protocol: as §1, §2

SW480 (KRAS-G12V) = test: Anti-proliferation assay on SW480; format: cell-based; details: 72 h treatment, average with SD (n = 3, duplicate)
Protocol: as §1, §2

OCI-AML3 (NRAS-Q61L) = test: Anti-proliferation assay on OCI-AML3; format: cell-based, human; details: 72 h treatment, average with SD (n = 3, duplicate)
Protocol: as §1, §2

Structure (SMILES): COc1cc(Nc2c(C#N)cnc3cc(OCCCN4CCN(C)CC4)c(OC)cc23)c(Cl)cc1Cl [bosutinib]
mtKRAS NSCLC cell migration and invasion (mtKRAS NSCLC cell): suppressed

GI50 (HT-29 (KRAS-Q61L)): 938 ± 34 nM | GI50 (U937 (KRAS, NRAS-wt)): 4780 ± 926 nM | GI50 (Ba/F3-NRAS-G12D cells): 250 ± 26 nM | GI50 (H358 (KRAS-G12C)): 922 ± 93 nM | GI50 (MDA-MB-231 (KRAS-G13D)): 296 ± 39 nM | GI50 (HCT-116 (KRAS-G13D)): 169 ± 61 nM | GI50 [1]: > 50000 nM | GI50 (AsPC-1 (KRAS-G12D)): 448 ± 27 nM | GI50 (Ba/F3-NRAS-G12V cells): 396 ± 36 nM | GI50 (DU-145 (KRAS-G12V)): 288 ± 57 nM | GI50 (SW480 (KRAS-G12V)): 760 ± 63 nM | GI50 (OCI-AML3 (NRAS-Q61L)): 229 ± 10 nM
Structure (SMILES): Cc1ccc(Nc2ncc3c(n2)N(C)C(=O)N(c2cc(NC(=O)c4cccc(C(F)(F)F)c4)ccc2C)C3)cn1 [GNF-7, reference compound]
GI50 (Ba/F3-parental cells): 923 ± 59 nM

GI50 (HT-29 (KRAS-Q61L); Homo sapiens, HT-29): 2140 ± 109 nM | GI50 (U937 (KRAS, NRAS-wt); Homo sapiens, U-937): 6060 ± 2180 nM | GI50 (Ba/F3-NRAS-G12D cells; Mus musculus, BaF3): 1255 ± 6 nM | GI50 (H358 (KRAS-G12C); Homo sapiens, NCI-H358): 8980 ± 246 nM | GI50 (MDA-MB-231 (KRAS-G13D); Homo sapiens, MDA-MB-231): 2790 ± 658 nM | GI50 (HCT-116 (KRAS-G13D); Homo sapiens, HCT-116): 5810 ± 965 nM | GI50 ([1]; Homo sapiens, MDA-MB-468): > 50000 nM | GI50 (AsPC-1 (KRAS-G12D); Homo sapiens, ASPC1): 6650 ± 102 nM | GI50 (Ba/F3-NRAS-G12V cells; Mus musculus, BaF3): 944 ± 112 nM | GI50 (DU-145 (KRAS-G12V); Homo sapiens, DU-145): 3990 ± 566 nM | GI50 (SW480 (KRAS-G12V); Homo sapiens, SW480): 5790 ± 657 nM | GI50 (OCI-AML3 (NRAS-Q61L); Homo sapiens, OCI-AML-3): 687 ± 154 nM
Structure (SMILES): CCN1CCN(c2ccc(Nc3ncc4c(n3)N(C)C(=O)N(c3cc(NC(=O)c5cccc(C(F)(F)F)c5)ccc3C)C4)c(C(F)(F)F)c2)CC1 [Compound 8, N-(3-(7-((4-(4-Ethylpiperazin-1-yl)-2-(trifluoromethyl)phenyl)amino)-1-methyl-2-oxo-1,4-dihydropyrimido[4,5-d]pyrimidin-3(2H)-yl)-4-methylphenyl)-3-(trifluoromethyl)benzamide]
GI50 (Ba/F3-parental cells; Mus musculus, BaF3): 3920 ± 722 nM
